Data as given in US12171876B2, “Cationic lipid compound, composition containing same and use thereof” (HANGZHOU TIANLONG PHARMACEUTICAL CO., LTD., priority 2022, dated 2024).
Several values for one entry are separate records, joined by “and”; a condition that tells them apart may be missing. Equal values may be shown once. Entries after “also recorded” stand apart in the source; their conditions may differ.

Columns and labels:
[1] = Particle size and polydispersity index (PDI) of lipid nanoparticles by dynamic light scattering; format: physicochemical; settings: LNP formulation of Example 4, cationic lipid/DSPC/cholesterol/DMG-PEG2000 50:10:38.5:1.5; 25° C., 90° scattering angle
Description: The particle size and polydispersity index (PDI) were determined by dynamic light scattering using Malvern laser particle size analyzer.
10 μL of the liposome solution was weighed, diluted to 1 mL with RNase-free deionized water, and added to the sample pool. Each sample was measured in triplicate. The measurement conditions were: 90° scattering angle, and 25° C.

293T cells [2] = assay: Fluorescent detection of Fluc-mRNA (transfection efficiency of LNP formulations in cells); format: cell-based
Description: (§1) Cell recovery and passage: 293T cells were recovered, cultured in a culture dish, and passaged to the required number of cells.
(§2) Seeding plate: The cells in the culture dish were digested and counted. Cells were spread in a 96-well plate at 10,000 cells per well and in a 12-well plate at 150,000 cells per well. Cells were cultured overnight until the cells adhered to the wall.
A LNP formulation containing 0.3 μg of Fluc-mRNA (the carrier components of the LNP formulation were cationic lipid, neutral lipid, structured lipid and polymer-conjugated lipid with a molar ratio of 50:10:38.5:1.5, wherein the cationic lipid was listed in Table 1) was added to the cell culture medium of a 96-well plate, and further incubated for 24 hours. The corresponding reagent was added according to the instructions of the […] Luciferase Assay Kit, and the fluorescence expression intensity of each well was detected by an IVIS fluorescence detection system. This test verified the transfection efficiency of LNP formulations in cells.
In order to further compare the intracellular transfection efficiency of LNP formulations prepared from cationic lipid YK-009 and compound 25, we prepared LNP formulations with Fluc-mRNA contents of 0.3 μg, 0.225 μg, 0.15 μg and 0.075 μg, respectively (the carrier components of the LNP formulation were cationic lipid, neutral lipid, structured lipid and polymer-conjugated lipid with a molar ratio of 50:10:38.5:1.5, wherein the cationic lipid was YK-009 or compound 25). The intracellular transfection activity of the prepared LNP formulations was detected, and the detection method was the same as above.

293T cells [3] = assay: Cell survival rate assay (CCK-8); format: cell-based; settings: for Cell survival rate (%): 24 hours
Description: as §1, §2
A LNP formulation containing 1.5 μg of Fluc-mRNA (the carrier component of the LNP formulation was cationic lipid, neutral lipid, structured lipid and polymer-conjugated lipid with a molar ratio of 50:10:38.5:1.5, wherein the cationic lipid was listed in Table 1) was added to the cell culture medium of a 96-well plate, and further cultivated for 24 hours. 10 μL of CCK-8 solution was then added to each well, and the culture plate was incubated in an incubator for 1 hour. The absorbance at 450 nm was measured by a microplate reader.
To compare the cytotoxicity of LNP formulations prepared from cationic lipid YK-009 and compound 25, we prepared LNP formulations with Fluc-mRNA contents of 1.5 μg, 1.125 μg, 0.75 μg and 0.375 μg (the carrier components of LNP formulations were cationic lipid, neutral lipid, structured lipid and polymer-conjugated lipid with a molar ratio of 50:10:38.5:1.5, wherein the cationic lipid was YK-009 or compound 25). The assay method of cell survival rate was the same as above.

female BALB/C mice = assay: Mouse live imaging test of LNP formulations of Fluc-mRNA; format: in vivo
Description: A LNP formulation containing 10 μg of Fluc-mRNA was intramuscularly injected into female BALB/C mice aged 4-6 weeks and weighing 17-19 g, and at specific time points (3 h, 6 h, 24 h, 48 h and 72 h) after administration, mice were injected intraperitoneally with a fluorescent imaging substrate. The mice moved freely for 5 minutes, and then the average radiation intensity (corresponding to fluorescence expression intensity) of the protein expressed by the mRNA carried by LNP in mice was detected using the IVIS Spectrum small animal live imager.
To compare the protein expression and duration in mice of LNP formulations prepared from cationic lipid YK-009 and compound 25, we prepared LNP formulations with Fluc-mRNA contents of 10 μg, 7.5 μg, 5 μg and 2.5 μg (the carrier components of LNP formulations were cationic lipid, neutral lipid, structured lipid and polymer-conjugated lipid with a molar ratio of 50:10:38.5:1.5, wherein the cationic lipid was YK-009 or compound 25). The mouse live imaging test method was the same as above.

[4] = mRNA transfection, time not stated

Structure (SMILES): CCCCCCCCCCOC(=O)CCCN(CCO)CCCCCC(=O)OCC(CCCCCCCC)CCCCCCCC [YK-009, 2-octyldecyl 6-((4-(decyloxy)-4-oxobutyl)(2-hydroxyethyl)amino)hexanoate]
- PDI (%) [1]: 18.2%
- Particle size (nm) [1]: 136.44 nm
- RLU value / cell transfection efficiency, times that of MC3 (293T cells [2]; Fluc-mRNA LNP formulation): 42 times and 40 times
- RLU value / cell transfection efficiency, times that of YK-004 (293T cells [2]; Fluc-mRNA LNP formulation): 39 times
- RLU value / cell transfection efficiency, times that of YK-010 (293T cells [2]; Fluc-mRNA LNP formulation): 58 times and ~60 times
- RLU value / cell transfection efficiency, times that of compound 27 (293T cells [2]; Fluc-mRNA LNP formulation): 13 times
- fluorescence absorption, times that of the compound 25 formulation (293T cells [2]; LNP formulation containing 0.075 μg of Fluc-mRNA): 3.7 times
- fluorescence absorption, times that of the compound 25 formulation (293T cells [2]; LNP formulation containing 0.15 μg of Fluc-mRNA): 4.0 times
- fluorescence absorption, times that of the compound 25 formulation (293T cells [2]; LNP formulation containing 0.225 μg of Fluc-mRNA): 7.0 times
- fluorescence absorption, times that of the compound 25 formulation (293T cells [2]; LNP formulation containing 0.3 μg of Fluc-mRNA): 4.4 times
- cell transfection efficiency, fold compared with compound 25 (293T cells [2]; mRNA transfection, content not stated): 7 times
- difference in toxicity to transfected cells between YK-009 and YK-010 (293T cells [3]): ≥ 25%
- Cell survival rate (%) (293T cells [3]; Fluc-mRNA content 0.375 μg): 100%
- Cell survival rate (%) (293T cells [3]; Fluc-mRNA content 0.75 μg): 100%
- Cell survival rate (%) (293T cells [3]; Fluc-mRNA content 1.125 μg): 100%
- Cell survival rate (%) (293T cells [3]; Fluc-mRNA content 1.5 μg): 100%
- Cell survival rate (%) (293T cells [3]; LNP formulation containing 1.5 μg of Fluc-mRNA): 100%
- reduction in toxicity to transfected cells compared with compound 25 (293T cells [3]; mRNA transfection): 9%
- toxicity to transfected cells, lower than that of MC3 (293T cells [3]; mRNA transfection): 12%
- toxicity to transfected cells, lower than that of compound 23 (293T cells [3]; mRNA transfection): 13%
- toxicity to transfected cells, lower than that of compound 27 (293T cells [3]; mRNA transfection): 16%
- expression intensity of Fluc-mRNA in mice over time (in words) (female BALB/C mice; 3 h to 72 h after intramuscular injection): highest expression intensity; also recorded: maintain high expression in vivo for a long time
- expression in mice, times higher than that for MC3 (female BALB/C mice; [4]): more than 25 times
- expression in mice, times higher than that for compound 27 (female BALB/C mice; [4]): > 6 times
- increase in expression in mice compared with compound 25 (female BALB/C mice; [4]): 7 fold
